{"source": "ChEMBL document CHEMBL3526057", "about": "(Drug Metab Dispos, 2011)", "format_in_all_cases": "ADME", "key": {"Cytochrome P450 2C19 [1]": {"biological_target": "T1, Cytochrome P450 2C19 (Homo sapiens, UniProt P33261, S51G)", "experiment": "Activity of human recombinant CYP2C19.19 mutant expressed in Saccharomyces cerevisiae BJ5457 assessed as omeprazole 5'-hydroxylation per pmol protein at 5 uM after 60 mins", "settings": "recombinant enzyme, 1 h"}, "Cytochrome P450 2C19 [2]": {"biological_target": "T2, Cytochrome P450 2C19 (Homo sapiens, UniProt P33261, W212C)", "experiment": "Activity of human recombinant CYP2C19 W212C mutant expressed in Saccharomyces cerevisiae BJ5457 assessed as intrinisic clearance foromeprazole 5'-hydroxylation per pmol protein after 60 mins", "settings": "recombinant enzyme, 1 h"}, "Cytochrome P450 2C19 [3]": {"biological_target": "T3, Cytochrome P450 2C19 (Homo sapiens, UniProt P33261)", "experiment": "Activity of human recombinant CYP2C19.1B mutant expressed in Saccharomyces cerevisiae BJ5457 assessed as omeprazole 5'-hydroxylation per pmol protein at 100 uM after 60 mins", "settings": "recombinant enzyme, 1 h"}, "Cytochrome P450 2C19 [4]": {"biological_target": "Cytochrome P450 2C19 (Homo sapiens, UniProt P33261, D360N)", "experiment": "Activity of human recombinant CYP2C19 D360N mutant expressed in Saccharomyces cerevisiae BJ5457 assessed as omeprazole 5'-hydroxylation per pmol protein at 100 uM after 60 mins", "settings": "recombinant enzyme, 1 h"}, "Cytochrome P450 2C19 [5]": {"biological_target": "Cytochrome P450 2C19 (Homo sapiens, UniProt P33261, R144H)", "experiment": "Activity of human recombinant CYP2C19.9 mutant expressed in Saccharomyces cerevisiae BJ5457 assessed as omeprazole 5'-hydroxylation per pmol protein at 5 uM after 60 mins", "settings": "recombinant enzyme, 1 h"}, "Cytochrome P450 2C19 [6]": {"biological_target": "T4, Cytochrome P450 2C19 (Homo sapiens, UniProt P33261, L17P)", "experiment": "Activity of human recombinant CYP2C19.14 mutant expressed in Saccharomyces cerevisiae BJ5457 assessed asomeprazole 5'-hydroxylation per pmol protein after 60 mins", "settings": "recombinant enzyme, 1 h"}, "Cytochrome P450 2C19 [7]": {"biological_target": "T5, Cytochrome P450 2C19 (Homo sapiens, UniProt P33261, A161P)", "experiment": "Activity of human recombinant CYP2C19 A161P mutant expressed in Saccharomyces cerevisiae BJ5457 assessed asomeprazole 5'-hydroxylation per pmol protein after 60 mins", "settings": "recombinant enzyme, 1 h"}, "Cytochrome P450 2C19 [8]": {"biological_target": "T4, Cytochrome P450 2C19", "experiment": "Activity of human recombinant CYP2C19.14 mutant expressed in Saccharomyces cerevisiae BJ5457 assessed as omeprazole 5'-hydroxylation per pmol protein at 100 uM after 60 mins", "settings": "recombinant enzyme, 1 h"}, "Cytochrome P450 2C19 [9]": {"biological_target": "T6, Cytochrome P450 2C19 (Homo sapiens, UniProt P33261, R150H)", "experiment": "Activity of human recombinant CYP2C19.11 mutant expressed in Saccharomyces cerevisiae BJ5457 assessed as intrinisic clearance foromeprazole 5'-hydroxylation per pmol protein after 60 mins", "settings": "recombinant enzyme, 1 h"}, "Cytochrome P450 2C19 [10]": {"biological_target": "Cytochrome P450 2C19 (Homo sapiens, UniProt P33261, R433W)", "experiment": "Activity of human recombinant CYP2C19.5B mutant expressed in Saccharomyces cerevisiae BJ5457 assessed as omeprazole 5'-hydroxylation per pmol protein at 100 uM after 60 mins", "settings": "recombinant enzyme, 1 h"}, "Cytochrome P450 2C19 [11]": {"biological_target": "T7, Cytochrome P450 2C19 (Homo sapiens, UniProt P33261, P227L)", "experiment": "Activity of human recombinant CYP2C19.10 mutant expressed in Saccharomyces cerevisiae BJ5457 assessed as intrinisic clearance foromeprazole 5'-hydroxylation per pmol protein after 60 mins", "settings": "recombinant enzyme, 1 h"}, "Cytochrome P450 2C19 [12]": {"biological_target": "Cytochrome P450 2C19 (Homo sapiens, UniProt P33261, I19L)", "experiment": "Activity of human recombinant CYP2C19.15 mutant expressed in Saccharomyces cerevisiae BJ5457 assessed as intrinisic clearance foromeprazole 5'-hydroxylation per pmol protein after 60 mins", "settings": "recombinant enzyme, 1 h"}, "Cytochrome P450 2C19 [13]": {"biological_target": "Cytochrome P450 2C19 (Homo sapiens, UniProt P33261, R410C)", "experiment": "Activity of human recombinant CYP2C19.13 mutant expressed in Saccharomyces cerevisiae BJ5457 assessed as omeprazole 5'-hydroxylation per pmol protein at 5 uM after 60 mins", "settings": "recombinant enzyme, 1 h"}, "Cytochrome P450 2C19 [14]": {"biological_target": "T4, Cytochrome P450 2C19", "experiment": "Activity of human recombinant CYP2C19.14 mutant expressed in Saccharomyces cerevisiae BJ5457 assessed as intrinisic clearance foromeprazole 5'-hydroxylation per pmol protein after 60 mins", "settings": "recombinant enzyme, 1 h"}, "Cytochrome P450 2C19 [15]": {"biological_target": "Cytochrome P450 2C19 (Homo sapiens, UniProt P33261, F168L)", "experiment": "Activity of human recombinant CYP2C19 F168L mutant expressed in Saccharomyces cerevisiae BJ5457 assessed as omeprazole 5'-hydroxylation per pmol protein at 5 uM after 60 mins", "settings": "recombinant enzyme, 1 h"}, "Cytochrome P450 2C19 [16]": {"biological_target": "T8, Cytochrome P450 2C19 (Homo sapiens, UniProt P33261, M74T)", "experiment": "Activity of human recombinant CYP2C19 M74T mutant expressed in Saccharomyces cerevisiae BJ5457 assessed asomeprazole 5'-hydroxylation after 60 mins", "settings": "recombinant enzyme, 1 h"}, "Cytochrome P450 2C19 [17]": {"biological_target": "T6, Cytochrome P450 2C19", "experiment": "Activity of human recombinant CYP2C19.11 mutant expressed in Saccharomyces cerevisiae BJ5457 assessed as omeprazole 5'-hydroxylation per pmol protein at 5 uM after 60 mins", "settings": "recombinant enzyme, 1 h"}, "Cytochrome P450 2C19 [18]": {"biological_target": "T1, Cytochrome P450 2C19", "experiment": "Activity of human recombinant CYP2C19.19 mutant expressed in Saccharomyces cerevisiae BJ5457 assessed asomeprazole 5'-hydroxylation per pmol protein after 60 mins", "settings": "recombinant enzyme, 1 h"}, "Cytochrome P450 2C19 [19]": {"biological_target": "T3, Cytochrome P450 2C19", "experiment": "Activity of human recombinant CYP2C19.1A mutant expressed in Saccharomyces cerevisiae BJ5457 assessed asomeprazole 5'-hydroxylation per pmol protein after 60 mins", "settings": "recombinant enzyme, 1 h"}, "Cytochrome P450 2C19 [20]": {"biological_target": "T2, Cytochrome P450 2C19", "experiment": "Activity of human recombinant CYP2C19 W212C mutant expressed in Saccharomyces cerevisiae BJ5457 assessed as omeprazole 5'-hydroxylation per pmol protein at 5 uM after 60 mins", "settings": "recombinant enzyme, 1 h"}, "Cytochrome P450 2C19 [21]": {"biological_target": "T7, Cytochrome P450 2C19", "experiment": "Activity of human recombinant CYP2C19.10 mutant expressed in Saccharomyces cerevisiae BJ5457 assessed asomeprazole 5'-hydroxylation per pmol protein after 60 mins", "settings": "recombinant enzyme, 1 h"}, "Cytochrome P450 2C19 [22]": {"biological_target": "T3, Cytochrome P450 2C19", "experiment": "Activity of human recombinant CYP2C19.1B mutant expressed in Saccharomyces cerevisiae BJ5457 assessed asomeprazole 5'-hydroxylation per pmol protein after 60 mins", "settings": "recombinant enzyme, 1 h"}, "Cytochrome P450 2C19 [23]": {"biological_target": "T5, Cytochrome P450 2C19", "experiment": "Activity of human recombinant CYP2C19 A161P mutant expressed in Saccharomyces cerevisiae BJ5457 assessed as intrinisic clearance foromeprazole 5'-hydroxylation per pmol protein after 60 mins", "settings": "recombinant enzyme, 1 h"}, "Cytochrome P450 2C19 [24]": {"biological_target": "Cytochrome P450 2C19 (Homo sapiens, UniProt P33261, E122A)", "experiment": "Activity of human recombinant CYP2C19 E122A mutant expressed in Saccharomyces cerevisiae BJ5457 assessed as intrinisic clearance foromeprazole 5'-hydroxylation per pmol protein after 60 mins", "settings": "recombinant enzyme, 1 h"}, "[25]": {"experiment": "Activity of human recombinant CYP2C19.6 mutant expressed in Saccharomyces cerevisiae BJ5457 assessed as omeprazole 5'-hydroxylation per pmol protein at 5 uM after 60 mins", "settings": "recombinant enzyme, 1 h"}, "Cytochrome P450 2C19 [26]": {"biological_target": "T2, Cytochrome P450 2C19", "experiment": "Activity of human recombinant CYP2C19 W212C mutant expressed in Saccharomyces cerevisiae BJ5457 assessed asomeprazole 5'-hydroxylation per pmol protein after 60 mins", "settings": "recombinant enzyme, 1 h"}, "Cytochrome P450 2C19 [27]": {"biological_target": "T8, Cytochrome P450 2C19", "experiment": "Activity of human recombinant CYP2C19 M74T mutant expressed in Saccharomyces cerevisiae BJ5457 assessed as omeprazole 5'-hydroxylation per pmol protein at 100 uM after 60 mins", "settings": "recombinant enzyme, 1 h"}, "Cytochrome P450 2C19 [28]": {"biological_target": "T3, Cytochrome P450 2C19", "experiment": "Activity of human recombinant CYP2C19.1B mutant expressed in Saccharomyces cerevisiae BJ5457 assessed asomeprazole 5'-hydroxylation after 60 mins", "settings": "recombinant enzyme, 1 h"}, "[29]": {"biological_target": "CYP2C19.14 (CYP2C19 variant) (Homo sapiens, UniProt P33261, L17P)", "experiment": "Activity of human recombinant CYP2C19.14 mutant expressed in Saccharomyces cerevisiae BJ5457 assessed asomeprazole 5'-hydroxylation after 60 mins", "settings": "probe omeprazole (5'-hydroxylation)"}, "Cytochrome P450 2C19 [30]": {"biological_target": "Cytochrome P450 2C19 (Homo sapiens, UniProt P33261, R329H)", "experiment": "Activity of human recombinant CYP2C19.18 mutant expressed in Saccharomyces cerevisiae BJ5457 assessed as intrinisic clearance foromeprazole 5'-hydroxylation per pmol protein after 60 mins", "settings": "recombinant enzyme, 1 h"}}}
{"smiles": "COc1ccc2[nH]c([S+]([O-])Cc3ncc(C)c(OC)c3C)nc2c1", "note": "(stereo not given) [OMEPRAZOLE]", "values": [{"measurement": "Drug metabolism", "setting": "Cytochrome P450 2C19 [1]", "result": 2.82, "unit": "pmol/min"}, {"measurement": "CL", "setting": "Cytochrome P450 2C19 [2]", "result": 0.18, "unit": "µL/min"}, {"measurement": "Drug metabolism", "setting": "Cytochrome P450 2C19 [3]", "result": 5.36, "unit": "pmol/min"}, {"measurement": "Drug metabolism", "setting": "Cytochrome P450 2C19 [4]", "result": 4.1, "unit": "pmol/min"}, {"measurement": "Drug metabolism", "setting": "Cytochrome P450 2C19 [5]", "result": 1.95, "unit": "pmol/min"}, {"measurement": "Vmax", "setting": "Cytochrome P450 2C19 [6]", "result": 8.05, "unit": "pmol/min"}, {"measurement": "Vmax", "setting": "Cytochrome P450 2C19 [7]", "result": 1.61, "unit": "pmol/min"}, {"measurement": "Drug metabolism", "setting": "Cytochrome P450 2C19 [8]", "result": 8.25, "unit": "pmol/min"}, {"measurement": "CL", "setting": "Cytochrome P450 2C19 [9]", "result": 1.68, "unit": "µL/min"}, {"measurement": "Drug metabolism", "setting": "Cytochrome P450 2C19 [10]", "result": "metabolite_not_detected"}, {"measurement": "CL", "setting": "Cytochrome P450 2C19 [11]", "result": 0.5, "unit": "µL/min"}, {"measurement": "CL", "setting": "Cytochrome P450 2C19 [12]", "result": 1.21, "unit": "µL/min"}, {"measurement": "Drug metabolism", "setting": "Cytochrome P450 2C19 [13]", "result": 3.03, "unit": "pmol/min"}, {"measurement": "CL", "setting": "Cytochrome P450 2C19 [14]", "result": 1.91, "unit": "µL/min"}, {"measurement": "Drug metabolism", "setting": "Cytochrome P450 2C19 [15]", "result": 3.08, "unit": "pmol/min"}, {"measurement": "Km", "setting": "Cytochrome P450 2C19 [16]", "result": 3.62, "unit": "µM"}, {"measurement": "Drug metabolism", "setting": "Cytochrome P450 2C19 [17]", "result": 2.84, "unit": "pmol/min"}, {"measurement": "Vmax", "setting": "Cytochrome P450 2C19 [18]", "result": 9.59, "unit": "pmol/min"}, {"measurement": "Vmax", "setting": "Cytochrome P450 2C19 [19]", "result": 7.97, "unit": "pmol/min"}, {"measurement": "Drug metabolism", "setting": "Cytochrome P450 2C19 [20]", "result": 0.58, "unit": "pmol/min"}, {"measurement": "Vmax", "setting": "Cytochrome P450 2C19 [21]", "result": 5.35, "unit": "pmol/min"}, {"measurement": "Vmax", "setting": "Cytochrome P450 2C19 [22]", "result": 5.12, "unit": "pmol/min"}, {"measurement": "CL", "setting": "Cytochrome P450 2C19 [23]", "result": 0.24, "unit": "µL/min"}, {"measurement": "CL", "setting": "Cytochrome P450 2C19 [24]", "result": 0.4, "unit": "µL/min"}, {"measurement": "Drug metabolism", "setting": "[25]", "result": "metabolite_not_detected"}, {"measurement": "Vmax", "setting": "Cytochrome P450 2C19 [26]", "result": 2.04, "unit": "pmol/min"}, {"measurement": "Drug metabolism", "setting": "Cytochrome P450 2C19 [27]", "result": 4.27, "unit": "pmol/min"}, {"measurement": "Km", "setting": "Cytochrome P450 2C19 [28]", "result": 4.16, "unit": "µM"}, {"measurement": "Km at 1 h", "setting": "[29]", "result": 4.3, "unit": "µM"}, {"measurement": "CL", "setting": "Cytochrome P450 2C19 [30]", "result": 1.3, "unit": "µL/min"}]}
